# Entries after “also recorded” stand apart in the source; their conditions may differ.
# Tests used:
# [1] = system: HLA alleles of class I; assay: Affinity of epitopes for HLA alleles of class I; assay type: binding, human; conditions: for Affinity for the HLA alleles of class I: H2B-1 epitopes, Table 1; for Concatenation affinity for HLA allele of class I: LmLRAB (IA, IB, IC) epitopes, Table 2
# Description: The multiepitopic peptide compounds (24 to 40-mer), having a high affinity with a maximized number of HLA molecules of class I and of class II, such as the affinities for the alleles HLA of class I and HLA of class II of the epitopes in the peptides of the sequences SEQ ID NO: 22, 23, 65, 66, 69, 73, 77, 96, 97, 137, 138, and 157, 185, have a high immunoprevalent potential corresponding to an optimal vaccine coverage, in particular for the populations concerned. The degree of coverage of the peptide compounds of the invention show a very high added value compared with the peptides of the prior art.
# [2] = system: HLA supertypes of class I; assay: Affinity of epitopes for HLA supertypes of class I; assay type: binding, human; conditions: for Affinity for the HLA supertypes of class I: H2B-1 epitopes, Table 1; for Affinity for HLA supertypes of class I: LmLRAB (IA, IB, IC) epitopes, Table 2
# Description: HLA molecules are highly polymorphous. This is because there exist more than 2500 HLA proteins of class I (HLA-I) and more than 1000 HLA proteins of class II (HLA-II). However, some of these HLA molecules, close in sequence and in spatial conformation, may have epitopes common to the T cells. The grouping of several thousands of HLA molecules is at the present time described in a little more than 20 or so categories, referred to as “HLA supertypes” having epitopes that are very well preserved for each supertype.
# [3] = system: CD4+ T cells of a naive individual (MPL10); assay: IFN-γ ELISPOT with CD4+ T cells and autologous dendritic cells of a naive individual (long protocol, three stimulations); assay type: cell-based, human
# Method: The immunogenicity was evaluated, with combinations of peptides (combination corresponding to the “Pool H”) at 1 μM for each peptide, from samplings of blood of naive individuals and according to a long protocol with at least three successive stimulations. An IFN-γ ELISPOT test for measuring the frequency of the pre-existing naive T cells and the amplitude of the specific naive T repertoire for each peptide, was performed with the CD4+ T cells and the autologous dendritic cells of a naive individual in the presence or absence of the mixture of peptides, or in the presence of each peptide individually. […] The “Pool H” combination was used either with peptides not modified at the amino-terminal end and with amidation of the carboxy-terminal end, or with peptides chemically modified by a palmitoyl tail at the amino-terminal end and with amidation of the carboxy-terminal end.
# The evaluation of the immunogenicity properties of peptide compounds according to the invention in naive individuals, persons who have never been in contact with the Leishmania parasite, is an important factor in predicting the efficacy of a peptide vaccine (Kwok WW et al, 2012, Frequency of epitope-specific naive CD4(+) T cells correlates with immunodominance in the human memory repertoire; Castelli F A et al, 2007, Differential capacity of T cell priming in naive donors of promiscuous CD4+ T cell epitopes of HCV NS3 and Core proteins). Immunogenicity is evaluated in vitro by measuring the frequency of the pre-existing naive T cells and the amplitude of the naive T repertoire specific for each compound. The evaluation is carried out using blood samples from naive individuals and in accordance with a long protocol (Castelli F A, et al. 2007 as aforementioned) putting purified T lymphocytes in contact with autologous dendritic cells previously incubated with the peptides of the invention. The combination of peptides used is composed of: SEQ ID NO: 23, SEQ ID NO: 66, SEQ ID NO: 73, SEQ ID NO: 77, SEQ ID NO: 97, SEQ ID NO: 138, SEQ ID NO: 157, SEQ ID NO: 185, SEQ ID NO: B11, SEQ ID NO: B12 and SEQ ID NO: B13. The compounds were synthesized chemically without amino-terminal modification and with carboxy-terminal (peptide-NH2) amidation (NH2). After three successive stimulations at intervals of seven days of the CD4+ T cells of a naive individual (MPL10; Établissement français du sang de Toulouse), an IFN-γ ELISPOT was carried out with the cells in the presence or absence of the mixture of peptides, or in the presence of each compound individually. […] Each positive line responds to at least one of the peptides of the present invention. The MPL10-3 line responds to the peptides SEQ ID NO: 73 and SEQ ID NO: 157. The MPL10-4 line responds to the peptides SEQ ID NO: 23, SEQ ID NO: 73, SEQ ID NO: 77, SEQ ID NO: 97, SEQ ID NO: 138 and SEQ ID NO: 157. The MPL10-7 line responds to the peptides SEQ ID NO: 77, SEQ ID NO: 97 and SEQ ID NO: 157. The MPL10-8 line responds to the peptides SEQ ID NO: 66, SEQ ID NO: 73, SEQ ID NO: 97, SEQ ID NO: 138 and SEQ ID NO: 157. The MPL10-10 line responds to the peptides SEQ ID NO: 66, SEQ ID NO: 73, SEQ ID NO: 77, SEQ ID NO: 97, SEQ ID NO: 138, SEQ ID NO: 157 and SEQ ID NO: 185. And the MPL10-12 line responds to the peptides SEQ ID NO: 66, SEQ ID NO: 157 and SEQ ID NO: 185.
# The evaluation of the immunogenicity properties of peptide compounds of the invention in the same naive individual (MPL10) but with chemically synthesized compounds with the addition of a palmitoylated tail at the amino-terminal end and with an NH2 group at the carboxy-terminal end (PAL-peptide-NH2) was also performed. The same combination of peptides as before was used. After three stimulations with the mixture of PAL-peptide-NH2 peptides, an IFN-g ELISPOT was carried out with the cells in the presence or absence of the mixture of peptides, or in the presence of each peptide individually. […]
# [4] = MPL10-PAL-2 line, PAL-peptide-NH2
# [5] = MPL10-PAL-3 line, PAL-peptide-NH2
Substance,Affinity for the HLA alleles of class I [1],Affinity for the HLA supertypes of class I [2],"IFN-γ ELISPOT response of specific line to individual peptide ([3]; MPL10-10 line, peptide-NH2)","IFN-γ ELISPOT response of specific line to individual peptide [3, 5]",other results
AINAQMSMM (Leishmania major) [SEQ ID NO: 1],HLA-B*15:01,HLA-B*62,,,
ASFRSTEAI (Leishmania major) [SEQ ID NO: 75],,,,,"Concatenation affinity for HLA allele of class I [1]: HLA-A*32:01,; also recorded: HLA-B*15:03,; also recorded: HLA-B*1517; Affinity for HLA supertypes of class I [2]: HLA-A*01,; also recorded: HLA-B*27,; also recorded: HLA-B*58"
IKAINAQMSM (Leishmania major) [SEQ ID NO: 2],"HLA-B*57:01; also recorded: HLA-B*15:01,","HLA-B*62; also recorded: HLA-B*58,",,,
KAARSARSGEGYFLTDEKTSLVYGDGG (listed as Leishmania infantum) [SEQ ID NO: 157],,,responds,responds,"IFN-γ ELISPOT response of specific line to individual peptide ([3]; MPL10-3 line, peptide-NH2): responds; IFN-γ ELISPOT response of specific line to individual peptide ([3]; MPL10-4 line, peptide-NH2): responds; IFN-γ ELISPOT response of specific line to individual peptide ([3]; MPL10-7 line, peptide-NH2): responds; IFN-γ ELISPOT response of specific line to individual peptide ([3]; MPL10-8 line, peptide-NH2): responds; IFN-γ ELISPOT response of specific line to individual peptide ([3]; MPL10-12 line, peptide-NH2): responds; IFN-γ ELISPOT response of specific line to individual peptide [3, 4]: responds"
KAINAQMSMM (Leishmania major) [SEQ ID NO: 4],"HLA-B*58:01,; also recorded: HLA-B*57:01,; also recorded: HLA-B*15:01","HLA-B*58,; also recorded: HLA-B*62",,,
KARYMPHVDQSSIARYASFRSTEAIRYSSIMVVANK (Leishmania major) [SEQ ID NO: 77],,,responds,responds,"IFN-γ ELISPOT response of specific line to individual peptide ([3]; MPL10-4 line, peptide-NH2): responds; IFN-γ ELISPOT response of specific line to individual peptide ([3]; MPL10-7 line, peptide-NH2): responds"
KARYMSMSHRTMKSMSHRTMKIKAINAQMSMMERICTEAA (Leishmania major) [SEQ ID NO: 23],,,,responds,"IFN-γ ELISPOT response of specific line to individual peptide ([3]; MPL10-4 line, peptide-NH2): responds"
KARYRFAQGEHDIRLPENAFVIARYTQGSSKAGF (Leishmania major) [SEQ ID NO: 73],,,responds,responds,"IFN-γ ELISPOT response of specific line to individual peptide ([3]; MPL10-3 line, peptide-NH2): responds; IFN-γ ELISPOT response of specific line to individual peptide ([3]; MPL10-4 line, peptide-NH2): responds; IFN-γ ELISPOT response of specific line to individual peptide ([3]; MPL10-8 line, peptide-NH2): responds; IFN-γ ELISPOT response of specific line to individual peptide [3, 4]: responds"
KEMPSGSDYSHMSIRDLDFSNMGLLLSGT (KEMPSGSDYSHSMIRDLDFSNMGLLLSGT; listed as Leishmania infantum) [SEQ ID NO: 185],,,responds,responds,"IFN-γ ELISPOT response of specific line to individual peptide ([3]; MPL10-12 line, peptide-NH2): responds; IFN-γ ELISPOT response of specific line to individual peptide [3, 4]: responds"
KGRLHSVVGRHLSIVADHMPHLDQ (Leishmania major) [SEQ ID NO: 97],,,responds,responds,"IFN-γ ELISPOT response of specific line to individual peptide ([3]; MPL10-4 line, peptide-NH2): responds; IFN-γ ELISPOT response of specific line to individual peptide ([3]; MPL10-7 line, peptide-NH2): responds; IFN-γ ELISPOT response of specific line to individual peptide ([3]; MPL10-8 line, peptide-NH2): responds"
KGRSENAIVTSRKVQEEVFDLFTDVHYSEVSAKTK (Leishmania major) [SEQ ID NO: 138],,,responds,responds,"IFN-γ ELISPOT response of specific line to individual peptide ([3]; MPL10-4 line, peptide-NH2): responds; IFN-γ ELISPOT response of specific line to individual peptide ([3]; MPL10-8 line, peptide-NH2): responds"
KTKQHLREM (Leishmania major) [SEQ ID NO: 68],,,,,"Concatenation affinity for HLA allele of class I [1]: HLA-A*30:01,; also recorded: HLA-A*2602; Affinity for HLA supertypes of class I [2]: HLA-A*01/HLA-A*03,"
MERICTEAA (Leishmania major) [SEQ ID NO: 6],"HLA-B*40:02,; also recorded: HLA-B*45",HLA-B*44,,,
MMERICTEA (Leishmania major) [SEQ ID NO: 5],"HLA-A*02:03,; also recorded: HLA-A*02:01",HLA-A*02,,,
MMERICTEAA (Leishmania major) [SEQ ID NO: 7],HLA-A*02:03,HLA-A*02,,,
MPHVDQSSI (Leishmania major) [SEQ ID NO: 74],,,,,"Concatenation affinity for HLA allele of class I [1]: HLA-B*07:02,; also recorded: HLA-B*35:01,; also recorded: HLA-B*51:01,; also recorded: HLA-B*53:01,; also recorded: HLA-B*08:01; Affinity for HLA supertypes of class I [2]: HLA-B*07,; also recorded: HLA-B*08"
MSHRTMKIK (Leishmania major) [SEQ ID NO: 8],"HLA-A*30:01,; also recorded: HLA-A*03:01,; also recorded: HLA-A*11:01","HLA-A*01/HLA-A*03,",,,
MSHRTMKIKA (Leishmania major) [SEQ ID NO: 9],HLA-A*30:01,HLA-A*01/HLA-A*03,,,
MSHRTMKSM (Leishmania major) [SEQ ID NO: 10],"HLA-B*57:01,; also recorded: HLA-A*30:01,; also recorded: HLA-B*15:01","HLA-A*01/HLA-A*03,; also recorded: HLA-B*58,; also recorded: HLA-B*62",,,
MSMSHRTM (Leishmania major) [SEQ ID NO: 11],HLA-B*08:01,HLA-B*08,,,
MSMSHRTMKS (Leishmania major) [SEQ ID NO: 13],"HLA-A*03:01,; also recorded: HLA-A*11:01",HLA-A*03,,,
MSMSHRTMKSMSHRTMKIKAINAQMSMMERICTEAA (Leishmania major) [SEQ ID NO: 22],,,,,"IFN-γ ELISPOT response of specific line to individual peptide [3, 4]: responds"
SEQ ID NO: 66: multiepitopic peptide compound of overlapping H2B epitopes of sequences SEQ ID NO: 24 to 64; sequence not printed (KGRKPKRSWNVYVGRSLKAINAQMSMSHRTMKIV; Leishmania major),,,responds,responds,"IFN-γ ELISPOT response of specific line to individual peptide ([3]; MPL10-8 line, peptide-NH2): responds; IFN-γ ELISPOT response of specific line to individual peptide ([3]; MPL10-12 line, peptide-NH2): responds; IFN-γ ELISPOT response of specific line to individual peptide [3, 4]: responds"
